Assay results: ChEMBL document CHEMBL1201862, “PubChem BioAssay data set” (2004)
Calls of active or inactive are those of the source.

Tests used:
[1] = target: T1, High affinity choline transporter 1 (Homo sapiens, UniProt Q9GZV3); test: human choline transporter blockers, potency – cell-based, 10-point CRC, membrane potential dye, dose response (AID 588401); assay type: functional;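 further: membrane potential dye fluorescence of choline-evoked depolarization via CHT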
[2] = target: T1, High affinity choline transporter 1; test: human choline transporter blockers, potency – cell-based, 5-point CRC, membrane potential dye, dose response (AID 504840); assay type: functional
[3] = target: T2, DNA dC->dU-editing enzyme APOBEC-3G (Homo sapiens, UniProt Q9HC16); test: SAR analysis of small molecule inhibitors of APOBEC3G DNA Deaminase via a fluorescence-based single-stranded DNA deaminase assay - Set 2.; assay type: functional; conditions: read-out: IC50_Mean
Large T antigen = Large T antigen (Simian virus 40, UniProt P03070); assay type: functional, Betapolyomavirus macacae;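 further: Confirmatory-stage PubChem screen for compounds that inhibit SV40 T antigen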
[4] = target: T2, DNA dC->dU-editing enzyme APOBEC-3G; test: Dose Response confirmation of small molecule APOBEC3G DNA Deaminase Inhibitors via a fluorescence-based single-stranded DNA deaminase assay. [Related pubchem assays (depositor defined):AID493012, AID493028]; assay type: functional
[5] = target: T3, DNA dC->dU-editing enzyme APOBEC-3A (Homo sapiens, UniProt P31941); test: A3A deaminase inhibition for selectivity – biochemical, dose response (AID 504722); assay type: functional
[6] = target: T3, DNA dC->dU-editing enzyme APOBEC-3A; test: SAR analysis of small molecule inhibitors of APOBEC3A DNA Deaminase via a fluorescence-based single-stranded DNA deaminase assay - Set 2.; assay type: functional; conditions: read-out: IC50_Mean
Vero = test: viability of Vero cells under compound – cytotoxicity control for flavivirus capping enzyme inhibitors (AID 588742); assay type: functional; conditions: Chlorocebus sabaeus
Streptokinase A = target: T4, Streptokinase A (Streptococcus pyogenes serotype M1, UniProt P10520); test: viability-normalized secreted streptokinase activity reduction – plasminogen activation absorbance, OD405, dose response (AID 1914); assay type: functional, Streptococcus pyogenes M1 GAS;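 further: secreted streptokinase activity via plasminogen activation per viability signal from cell pellet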
T4 sequence (P10520 whole entry): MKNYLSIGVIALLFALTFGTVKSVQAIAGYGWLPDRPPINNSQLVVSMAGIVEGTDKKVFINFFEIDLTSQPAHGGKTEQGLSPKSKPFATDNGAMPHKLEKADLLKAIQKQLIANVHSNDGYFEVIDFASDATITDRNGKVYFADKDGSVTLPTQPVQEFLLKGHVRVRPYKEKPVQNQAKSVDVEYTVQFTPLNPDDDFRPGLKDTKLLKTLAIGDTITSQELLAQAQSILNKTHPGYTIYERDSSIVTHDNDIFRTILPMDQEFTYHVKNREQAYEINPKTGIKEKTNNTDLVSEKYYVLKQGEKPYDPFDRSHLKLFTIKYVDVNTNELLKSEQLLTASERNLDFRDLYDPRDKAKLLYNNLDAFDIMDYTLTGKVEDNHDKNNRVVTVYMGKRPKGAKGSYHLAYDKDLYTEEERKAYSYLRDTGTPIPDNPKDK

[7] = system: Streptococcus sp. 'group A'; test: Streptococcus pyogenes SK(-)GAS viability under kanamycin – luminescence, BacTiterGlo, confirmation, counter-screen for streptokinase expression inhibitor project, dose response (AID 1900); assay type: functional, organism-based
Streptococcus = test: GAS UMAA2166 growth inhibition – luminescence, BacTiterGlo, counter-screen for streptokinase expression inhibitor project, dose response (AID 1915); assay type: functional, organism-based;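 further: potency for reduction of bacterial viability or growth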
DNA topoisomerase = DNA topoisomerase (Yersinia pestis, UniProt A0A2S9PM60); test: Yersinia topoisomerase I cleavage product accumulation – biochemical, cherry-pick, dose response (AID 588525)
Genome polyprotein = Genome polyprotein (dengue virus type 2, UniProt P29990); test: flavivirus cap methylation enzyme inhibition – biochemical, confirmation dose response, primary screen (AID 588689); assay type: functional
NS3 = NS3 (Hepatitis C virus, UniProt A3EZJ3); test: PubChem AID 2173; set-up: species or system Hepacivirus hominis
[8] = target: Beta-adrenergic receptor kinase 1 (Homo sapiens, UniProt P25098); test: aptamer displacement from bead-bound GRK2 – biochemical, cherry pick 1, bead flow cytometry, dose response (AID 504500)
[9] = target: T5, Carboxy-terminal domain RNA polymerase II polypeptide A small phosphatase 1 (Homo sapiens, UniProt Q9GZU7); test: CTDSP1 inhibitors, concentration-response, biochemical, absorbance readout, ultra-high-throughput screen actives (AID 540297); assay type: functional
T5 sequence (Q9GZU7 whole entry): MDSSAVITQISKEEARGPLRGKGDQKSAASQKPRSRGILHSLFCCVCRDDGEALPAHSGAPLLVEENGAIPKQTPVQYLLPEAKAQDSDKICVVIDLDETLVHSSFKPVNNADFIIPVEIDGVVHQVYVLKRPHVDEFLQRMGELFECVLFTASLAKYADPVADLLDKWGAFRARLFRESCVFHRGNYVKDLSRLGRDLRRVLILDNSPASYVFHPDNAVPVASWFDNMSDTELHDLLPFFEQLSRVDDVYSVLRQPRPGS

Melanocortin receptor 4 = Melanocortin receptor 4 (Homo sapiens, UniProt P32245); test: inhibitors of MC4R cAMP signaling – cell-based, TR-FRET, biased antagonists, dose response (AID 602298); assay type: functional;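 further: antagonist potency against agonist-stimulated cAMP production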
[10] = target: Disintegrin and metalloproteinase domain-containing protein 17 (Homo sapiens, UniProt P78536); test: exosite inhibitors of ADAM17, dose response, biochemical (AID 743260)
[11] = cAMP pathway inhibition in counterscreen cell line – TR-FRET cAMP detection, counter-screen for MC4R biased antagonist project, dose response (AID 602305); assay type: functional, cell-based;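 further: U2OS cells stimulated with forskolin near its EC80 as the cAMP inducer; potency is for inhibition of forskolin-stimulated cAMP signaling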
[12] = target: 72 kDa type IV collagenase (Homo sapiens, UniProt P08253); test: Dose Response validation of uHTS RPN11 inhibitor hits using a MMP-2 Fluorescence assay.; assay type: functional
[13] = target: 26S proteasome non-ATPase regulatory subunit 14 (Homo sapiens, UniProt O00487); test: inhibition of proteasome subunit RPN11 – biochemical, fluorescence polarization, uHTS hits, confirmation (AID 602368); assay type: functional
Prothrombin = Prothrombin (Bos taurus, UniProt P00735); test: thrombin protease inhibitors – biochemical, fluorescence polarization, uHTS hits, dose response (AID 602369); assay type: functional
[14] = inhibition of ADAM10 peptide cleavage – biochemical, FRET peptide substrate, recombinant human ADAM10, selectivity assay for ADAM17 exosite inhibitor project, dose response (AID 743259);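 further: ADAM10 enzyme cleaving a FRET peptide substrate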
[15] = Luminescence Cell-Based Dose Response Follow up to Identify Inhibitors of Platelet Dense Granule Release. [Related pubchem assays (depositor defined):AID1663, AID1678, AID2398]; assay type: functional
[16] = blockers of SFLLRN-triggered platelet ATP secretion – cell-based, human platelets, luminescence, dry powder, dose response (AID 493100); assay type: functional
[17] = target: Multidrug resistance protein CDR2 (Candida albicans (strain SC5314 / ATCC MYA-2876) (Yeast), UniProt P78595); test: inhibition of Nile Red efflux via Candida CDR2 – S. cerevisiae AD1-8u, singleplex, Cherry Pick1 hits, dose response (AID 588604); assay type: functional
Phospholipase D1 = Phospholipase D1 (Homo sapiens, UniProt Q13393); test: cellular phospholipase D1 inhibition IC50 – cell-based, dose response (AID 602151); assay type: functional;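 further: cellular PLD1 assay in Calu-1 cells stimulated with PMA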
Phospholipase D2 = Phospholipase D2 (Homo sapiens, UniProt O14939); test: cellular phospholipase D2 inhibition IC50 – cell-based, dose response (AID 602147); assay type: functional;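 further: cellular assay in HEK293 cells overexpressing GFP-tagged PLD2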
[18] = target: Tyrosine-protein kinase JAK2 (Homo sapiens, UniProt O60674); assay type: functional;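 further: JAK2 tested as one member of a kinase panel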
[19] = target: Serine/threonine-protein kinase Chk1 (Homo sapiens, UniProt O14757); assay type: functional;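 further: measured as one member of a kinome-wide kinase profiling panel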
[20] = target: Fibroblast growth factor receptor 3 (Homo sapiens, UniProt P22607); assay type: functional
[21] = target: 5'-AMP-activated protein kinase catalytic subunit alpha-1 (Homo sapiens, UniProt Q13131); assay type: functional
[22] = target: STE20-like serine/threonine-protein kinase (Homo sapiens, UniProt Q9H2G2); assay type: functional
[23] = target: Dual specificity mitogen-activated protein kinase kinase 1 (Homo sapiens, UniProt Q02750); test: Navigating the Kinome. Panel member name: MAP2K1; assay type: functional
[24] = target: Dual specificity mitogen-activated protein kinase kinase 2 (Homo sapiens, UniProt P36507); test: Navigating the Kinome. Panel member name: MAP2K2; assay type: functional
[25] = target: Tyrosine-protein kinase BTK (Homo sapiens, UniProt Q06187); assay type: functional
[26] = target: Tyrosine-protein kinase Fer (Homo sapiens, UniProt P16591); assay type: functional;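 further: FER tested as one member of a kinome panel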
[27] = target: Sphingosine 1-phosphate receptor 2 (Homo sapiens, UniProt O95136); test: Late-stage fluorescence-based dose-response cell-based counterscreen assay to identify agonists of the Sphingosine 1-Phosphate Receptor 3 (S1P3): Sphingosine 1-Phosphate Receptor 2 (S1P2) agonist assay.; assay type: functional
[28] = target: T6, Sphingosine 1-phosphate receptor 4 (Homo sapiens, UniProt O95977); test: Late-stage fluorescence-based dose-response cell-based counterscreen assay to identify agonists of the Sphingosine 1-Phosphate Receptor 3 (S1P3): Sphingosine 1-Phosphate Receptor 4 (S1P4) agonist assay.; assay type: functional
T6 sequence (O95977 whole entry): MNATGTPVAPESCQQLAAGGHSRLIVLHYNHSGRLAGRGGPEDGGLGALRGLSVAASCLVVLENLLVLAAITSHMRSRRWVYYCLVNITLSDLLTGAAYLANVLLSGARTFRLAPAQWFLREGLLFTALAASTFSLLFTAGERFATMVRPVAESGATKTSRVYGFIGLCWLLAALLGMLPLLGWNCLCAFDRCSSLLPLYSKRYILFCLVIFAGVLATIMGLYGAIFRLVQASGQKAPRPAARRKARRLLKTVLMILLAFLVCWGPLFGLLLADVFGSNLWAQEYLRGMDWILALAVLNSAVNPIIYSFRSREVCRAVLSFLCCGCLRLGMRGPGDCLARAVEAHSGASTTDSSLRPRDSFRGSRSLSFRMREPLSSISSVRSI

[29] = target: T7, V-type proton ATPase subunit c' (Saccharomyces cerevisiae S288c, UniProt P32842); test: Dose Response of Small Molecules that Regulate V-ATPase Proton Transport in Yeast using pHLuorin, Powder Set1.; assay type: functional; conditions: read-out: EC50_MICROM
[30] = target: T7, V-type proton ATPase subunit c'; test: Dose Response with BCECF Assay for V-ATPase inhibitors that increase vacuolar pH, Powder Set 1.; assay type: functional; conditions: read-out: EC50_MICROM

T1 sequence (Q9GZV3 whole entry): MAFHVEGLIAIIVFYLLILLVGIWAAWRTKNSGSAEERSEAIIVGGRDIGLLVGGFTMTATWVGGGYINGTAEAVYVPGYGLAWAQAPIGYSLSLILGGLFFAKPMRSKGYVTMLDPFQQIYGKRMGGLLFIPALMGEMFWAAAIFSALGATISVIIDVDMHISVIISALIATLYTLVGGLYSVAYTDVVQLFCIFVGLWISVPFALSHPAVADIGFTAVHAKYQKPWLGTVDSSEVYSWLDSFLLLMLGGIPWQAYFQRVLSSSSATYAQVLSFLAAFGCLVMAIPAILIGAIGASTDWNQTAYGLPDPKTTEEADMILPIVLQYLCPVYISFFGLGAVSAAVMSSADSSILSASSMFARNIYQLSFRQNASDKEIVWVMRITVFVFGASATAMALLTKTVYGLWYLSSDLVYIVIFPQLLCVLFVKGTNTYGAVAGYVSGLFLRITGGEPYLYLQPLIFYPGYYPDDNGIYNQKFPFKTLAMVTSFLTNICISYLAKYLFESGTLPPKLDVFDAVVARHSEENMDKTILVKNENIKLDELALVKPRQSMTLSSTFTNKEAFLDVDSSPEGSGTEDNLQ
T2 sequence (Q9HC16 whole entry): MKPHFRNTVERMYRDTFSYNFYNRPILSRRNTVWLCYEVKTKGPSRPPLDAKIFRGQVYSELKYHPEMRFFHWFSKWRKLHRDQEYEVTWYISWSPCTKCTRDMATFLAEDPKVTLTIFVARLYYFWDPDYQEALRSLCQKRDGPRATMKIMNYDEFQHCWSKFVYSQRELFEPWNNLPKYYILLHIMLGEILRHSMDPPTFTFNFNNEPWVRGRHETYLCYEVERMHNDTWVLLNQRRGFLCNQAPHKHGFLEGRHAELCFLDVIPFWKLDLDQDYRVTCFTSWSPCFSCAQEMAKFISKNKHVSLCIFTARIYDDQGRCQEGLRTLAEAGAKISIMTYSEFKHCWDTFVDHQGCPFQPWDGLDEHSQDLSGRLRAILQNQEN
T7 sequence (P32842 whole entry): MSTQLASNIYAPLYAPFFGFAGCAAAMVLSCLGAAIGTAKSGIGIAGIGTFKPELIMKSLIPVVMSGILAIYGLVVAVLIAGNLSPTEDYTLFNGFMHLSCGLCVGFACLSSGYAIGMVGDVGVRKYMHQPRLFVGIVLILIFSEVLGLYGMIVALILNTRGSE
T3 sequence (P31941 whole entry): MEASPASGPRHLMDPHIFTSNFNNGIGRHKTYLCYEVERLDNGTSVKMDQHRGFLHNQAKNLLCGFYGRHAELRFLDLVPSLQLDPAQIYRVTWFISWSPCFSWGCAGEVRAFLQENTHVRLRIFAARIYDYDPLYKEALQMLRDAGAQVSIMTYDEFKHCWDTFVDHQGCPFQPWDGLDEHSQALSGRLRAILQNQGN
Chain of Disintegrin and metalloproteinase domain-containing protein 17 (P78536 whole entry, the tested form may be a part): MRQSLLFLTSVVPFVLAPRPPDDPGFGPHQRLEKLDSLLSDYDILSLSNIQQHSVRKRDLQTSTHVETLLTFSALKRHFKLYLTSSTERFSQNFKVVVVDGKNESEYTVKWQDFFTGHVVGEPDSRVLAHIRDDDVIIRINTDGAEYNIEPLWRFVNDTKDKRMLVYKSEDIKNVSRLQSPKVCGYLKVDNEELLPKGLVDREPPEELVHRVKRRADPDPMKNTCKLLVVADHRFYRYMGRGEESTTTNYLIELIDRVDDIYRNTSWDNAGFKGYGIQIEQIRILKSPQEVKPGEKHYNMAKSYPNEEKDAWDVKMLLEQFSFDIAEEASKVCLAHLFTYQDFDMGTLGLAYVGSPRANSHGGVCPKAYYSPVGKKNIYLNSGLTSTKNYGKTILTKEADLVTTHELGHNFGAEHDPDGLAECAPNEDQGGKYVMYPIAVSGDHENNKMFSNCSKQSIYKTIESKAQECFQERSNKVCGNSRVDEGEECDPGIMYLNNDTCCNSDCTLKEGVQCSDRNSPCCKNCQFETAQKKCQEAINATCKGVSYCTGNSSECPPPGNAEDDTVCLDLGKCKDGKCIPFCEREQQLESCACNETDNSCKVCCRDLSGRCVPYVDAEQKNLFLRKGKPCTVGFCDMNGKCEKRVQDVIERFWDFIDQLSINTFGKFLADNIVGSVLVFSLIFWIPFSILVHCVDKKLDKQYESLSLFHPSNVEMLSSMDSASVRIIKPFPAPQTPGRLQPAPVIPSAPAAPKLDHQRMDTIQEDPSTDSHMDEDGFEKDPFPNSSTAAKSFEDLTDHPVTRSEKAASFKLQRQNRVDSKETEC
Chain of Multidrug resistance protein CDR2 (P78595 whole entry): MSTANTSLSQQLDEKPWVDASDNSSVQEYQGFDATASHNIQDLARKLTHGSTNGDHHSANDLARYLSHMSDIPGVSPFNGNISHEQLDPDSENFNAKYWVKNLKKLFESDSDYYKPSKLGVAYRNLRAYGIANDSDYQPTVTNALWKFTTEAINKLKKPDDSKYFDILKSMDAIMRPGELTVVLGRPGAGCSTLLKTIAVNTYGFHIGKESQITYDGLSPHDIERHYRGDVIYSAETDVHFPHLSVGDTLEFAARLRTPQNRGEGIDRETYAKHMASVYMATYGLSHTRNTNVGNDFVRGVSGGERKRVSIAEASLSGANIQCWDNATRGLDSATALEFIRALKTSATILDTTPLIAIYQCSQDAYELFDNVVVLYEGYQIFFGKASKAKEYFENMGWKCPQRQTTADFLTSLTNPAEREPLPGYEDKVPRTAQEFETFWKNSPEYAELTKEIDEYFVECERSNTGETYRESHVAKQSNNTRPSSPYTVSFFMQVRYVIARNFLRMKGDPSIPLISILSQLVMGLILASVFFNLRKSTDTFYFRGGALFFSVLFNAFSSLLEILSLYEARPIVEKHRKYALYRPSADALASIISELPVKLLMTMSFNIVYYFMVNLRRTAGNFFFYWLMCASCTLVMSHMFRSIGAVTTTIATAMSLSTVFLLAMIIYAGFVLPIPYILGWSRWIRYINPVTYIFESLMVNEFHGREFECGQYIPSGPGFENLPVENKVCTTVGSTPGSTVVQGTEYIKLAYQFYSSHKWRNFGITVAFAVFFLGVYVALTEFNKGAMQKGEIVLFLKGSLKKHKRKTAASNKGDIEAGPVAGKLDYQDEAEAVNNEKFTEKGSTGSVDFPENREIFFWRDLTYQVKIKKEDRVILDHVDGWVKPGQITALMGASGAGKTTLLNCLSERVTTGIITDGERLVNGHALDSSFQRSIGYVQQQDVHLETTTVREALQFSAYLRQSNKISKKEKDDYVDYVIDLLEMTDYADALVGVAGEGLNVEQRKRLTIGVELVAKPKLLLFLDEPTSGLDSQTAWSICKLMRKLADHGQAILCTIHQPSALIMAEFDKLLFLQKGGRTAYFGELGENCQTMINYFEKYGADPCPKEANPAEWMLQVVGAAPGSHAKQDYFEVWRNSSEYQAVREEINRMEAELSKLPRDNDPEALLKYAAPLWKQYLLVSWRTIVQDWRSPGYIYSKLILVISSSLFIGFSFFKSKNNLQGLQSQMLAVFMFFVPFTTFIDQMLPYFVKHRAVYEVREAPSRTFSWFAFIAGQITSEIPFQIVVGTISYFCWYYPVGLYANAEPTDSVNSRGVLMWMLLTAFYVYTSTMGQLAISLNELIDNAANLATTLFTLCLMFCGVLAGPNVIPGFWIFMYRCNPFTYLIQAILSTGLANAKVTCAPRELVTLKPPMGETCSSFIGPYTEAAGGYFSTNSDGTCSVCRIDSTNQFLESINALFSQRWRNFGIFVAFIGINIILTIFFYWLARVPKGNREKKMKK
Chain of Serine/threonine-protein kinase Chk1 (O14757 whole entry): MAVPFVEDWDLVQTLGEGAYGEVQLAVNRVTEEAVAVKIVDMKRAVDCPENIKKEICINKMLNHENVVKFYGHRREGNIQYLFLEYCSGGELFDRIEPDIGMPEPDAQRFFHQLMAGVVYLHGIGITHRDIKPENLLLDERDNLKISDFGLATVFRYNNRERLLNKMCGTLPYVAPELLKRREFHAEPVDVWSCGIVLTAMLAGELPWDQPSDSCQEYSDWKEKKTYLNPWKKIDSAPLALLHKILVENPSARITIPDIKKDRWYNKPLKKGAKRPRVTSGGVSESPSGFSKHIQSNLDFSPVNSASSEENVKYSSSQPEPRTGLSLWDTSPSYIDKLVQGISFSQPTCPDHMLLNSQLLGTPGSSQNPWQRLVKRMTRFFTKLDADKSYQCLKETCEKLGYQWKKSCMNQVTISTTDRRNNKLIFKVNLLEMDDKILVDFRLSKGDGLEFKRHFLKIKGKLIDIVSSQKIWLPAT
Chain of Beta-adrenergic receptor kinase 1 (P25098 whole entry, the tested form may be a part): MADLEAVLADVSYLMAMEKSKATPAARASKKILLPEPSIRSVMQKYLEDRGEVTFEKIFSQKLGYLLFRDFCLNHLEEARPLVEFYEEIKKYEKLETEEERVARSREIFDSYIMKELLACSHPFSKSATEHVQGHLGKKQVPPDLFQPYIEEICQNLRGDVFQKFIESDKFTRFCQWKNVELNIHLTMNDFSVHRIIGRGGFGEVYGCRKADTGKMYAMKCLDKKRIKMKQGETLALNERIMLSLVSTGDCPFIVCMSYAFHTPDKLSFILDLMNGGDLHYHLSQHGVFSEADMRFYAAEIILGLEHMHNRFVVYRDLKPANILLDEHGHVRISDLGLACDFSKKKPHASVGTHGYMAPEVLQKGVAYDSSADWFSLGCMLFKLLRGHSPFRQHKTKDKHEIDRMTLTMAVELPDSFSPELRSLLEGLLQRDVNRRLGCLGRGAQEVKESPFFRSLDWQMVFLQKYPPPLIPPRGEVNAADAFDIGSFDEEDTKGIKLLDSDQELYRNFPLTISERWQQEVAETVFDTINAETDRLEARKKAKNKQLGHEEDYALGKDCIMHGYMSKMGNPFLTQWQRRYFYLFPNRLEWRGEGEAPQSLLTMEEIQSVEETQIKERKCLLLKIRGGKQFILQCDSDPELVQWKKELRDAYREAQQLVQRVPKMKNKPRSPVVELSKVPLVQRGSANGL

With `CCCCC1C(=O)CC[C@H]2[C@@H]1CC(=O)[C@@H]2C/C=C\CCCC(=O)O` (stereo partly specified) the IC50 [1] was 2.38 µM (active) and the IC50 [2] was 2.13 µM (active).
With `CCCn1c(=O)c2ccccc2n2c(=S)[nH]nc12` the IC50 [3] was > 99 µM (inactive), the IC50 (Large T antigen) was 18.2 µM (active) and the IC50 [4] was 2.87 µM (active). The IC50 [5] was > 100 µM (inactive) and the IC50 [6] was > 99 µM (inactive).
In the case of `CCCOc1ccc(C(=O)C2=C(O)C(=O)N(c3ccccn3)C2c2ccc(OC)cc2)cc1C` (stereo unspecified), the CC50 (Vero) is reported as > 40 µM (active), the EC50 (Streptokinase A) is reported as 103 µM (active) and the EC50 [7] is reported as 3.78 µM (active). The EC50 (Streptococcus) was 38.6 µM (active), the AC50 (DNA topoisomerase) was 5.07 µM (active) and the IC50 (Genome polyprotein) was 74.3 µM (active). For the same compound, the IC50 (NS3) was 5.74 µM (active).
With `O=C(O)C1CC(=O)N(c2ccc3c(c2)OCCO3)C1` (stereo unspecified) the EC50 [8] was 30.9 µM (inactive) and the IC50 [9] was 6.73 µM (active).
For `O=C(NN=Cc1ccc(N(CCCl)CCCl)cc1)C(=O)c1c[nH]c2ccccc12`, the IC50 (Melanocortin receptor 4) was > 64.6 µM (inactive), the IC50 [10] was > 69.5 µM (inactive) and the IC50 [11] was > 64.6 µM (inactive). The IC50 [12] was > 100 µM (inactive), the IC50 [13] was 25.5 µM (active) and the IC50 (Prothrombin) was 45.1 µM (active). The IC50 [14] was > 69.5 µM (inactive).
With `Cc1ccc(-c2c(C#N)c(N)n(-c3ccccc3C)c(=O)c2C#N)cc1` the EC50 [15] was 2.03 µM (active) and the AC50 [16] was 12.6 µM (active).
In the case of `COc1ccc2c(-c3ccc(OCCN4CCOCC4)cc3)c(-c3ccccc3OC)sc2c1`, the EC50 [17] is reported as 13.3 µM (active).
In the case of `Cn1c(=O)n(C2CCN(CCNC(=O)c3ccc4ccccc4c3)CC2)c2ccccc21`, the IC50 (Phospholipase D1) is reported as 1.5 µM (active) and the IC50 (Phospholipase D2) is reported as 1.9 µM (active).
In the case of `COc1cc(OC)nc(N2Cc3ccccc3CC2C(=O)O)n1` (stereo unspecified), the Ki [18] is reported as 2.51 µM (active) and the Ki [19] is reported as 0.794 µM (active).
With `Cc1cc(Nc2cc(N3CCN(C)CC3)nc(C=Cc3ccccc3)n2)n[nH]1` the Ki [20] was 0.1 µM (active), the Ki [21] was 0.501 µM (active) and the Ki [22] was 0.501 µM (active). The Ki [23] was 0.501 µM (active), the Ki [24] was 0.316 µM (active) and the Ki [25] was 0.501 µM (active). The Ki [26] was 0.316 µM (active).
In the case of `COc1ccc(-c2cc(C(=O)N(C3CCCCC3)C3CCCCC3)no2)cc1`, the EC50 [27] is reported as > 50 µM (inactive) and the EC50 [28] is reported as > 50 µM (inactive).
For `O=C(c1ccc([N+](=O)[O-])o1)N1CCN(c2cccc(Cl)c2)CC1`, the EC50 [29] was 12.4 µM (active) and the EC50 [30] was 1.25 µM (active).
